Data reported in patent US4923882A, “Novel amine derivatives, salts thereof and an anti-ulcer agent containing the same” (Toyama Chemical Co., Ltd., priority 1982, dated 1990).

Legend:
Reserpine ulcer = assay: Anti-ulcer activity: Reserpine ulcer; assay type: in vivo, Wistar strain rats; settings: oral
Description: An experiment was carried out according to the method of Adami et al. [E. Adami et al., Arch. int.
Ten Wistar strain rats (male, 180 to 200 g) per group were starved for 30 hours, after which each drug was orally administered, and after 1 hour, reserpine was injected subcutaneously at a dose of 10 mg/kg. After 18 hours, the stomach was removed and fixed with 3% formalin, and thereafter the lengths of the ulcers formed in the stomach were measured with callipers. The measured values were converted to the scores described below, and the sum total of the scores was taken as the ulcer index.
That is to say, 1 to 5 pin point ulcers are scored as 1, 6 or more pin point ulcers are scored as 2, ulcers of 1 mm or less in length are scored as 1, ulcers of 1 to 2 mm in length are scored as 2, ulcers of 2 to 4 mm in length are scored as 4, and ulcers of 4 mm or more in length are scored as 8.
(§1) To a control group was administered 0.5% Tween 80 physiological saline. The inhibition percentage was determined from the following equation: [formula]

[1] = tested on: Stress ulcer induced by water-immersion; assay: Anti-ulcer activity: Stress ulcer induced by water-immersion; assay type: in vivo, Wistar rats
Description: (iii) Stress ulcer induced by water-immersion
An experiment was carried out according to the method of Takagi et al. [K. Takagi et al., Jap.
Six Wistar rats (male, 230 to 280 g) per group were starved for 24 hours, after which each drug was orally administered. After 30 minutes, the rats were placed in stress cage, immersed in water at 23° C. to the depth of xiphoid, and allowed to stand therein for 15 hours. Thereafter, the stomach of each rat was removed and then fixed with 3% formalin, after which the areas of the ulcers formed were measured under the binocular stereoscopic microscope (10×), and the sum total of the areas was taken as the ulcer index. To a control group was administered 0.5% Tween 80 physiological saline.
The inhibition percentage was determined from the following equation: [formula]

gastric acid secretion [2] = assay: Inhibitory effect on gastric acid secretion, pylorus ligation method (histamine); assay type: in vivo, Wistar strain rats; settings: Rattus norvegicus; 1 mg/kg, oral; histamine 25 mg/kg s.c.; read-out: Inhibition percentage (gastric acid secretion)
Outline: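 Male Wistar rats (190–230 g, 5–6/group) fasted 35 h, dosed orally; pylorus ligated under ether 2 h later. Stomach removed after 3 h, gastric juice volume measured and acidity titrated with 0.1N NaOH to pH 7.0. Percent inhibition calculated against saline controls.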

gastric acid secretion [3] = assay: Inhibitory effect on gastric acid secretion, perfused stomach preparation of anesthetized rat (histamine stimulated); assay type: in vivo, Wistar strain rats; settings: intravenous
Outline: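 Urethane-anesthetized, 18 h-fasted male Wistar rats (200 to 250 g); stomach perfused at 1 ml/min with saline at pH about 10, with perfusate pH recorded continuously under iv histamine 30 μg/kg/min. Drug given iv cumulatively once secretion steady (pH 3.3±0.2), each dose after a plateau; n=3 per dose.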

[4] = tested on: isolated guinea pig atrium; assay: Effect on isolated guinea pig atrium (histamine-induced heart rate); parameters: species or system Hartley guinea pig
Description: Hartley guinea pig (male, 300 to 400 g) was killed by blood-letting, immediately after which the heart was isolated, and the right atrium was separated in a Krebs-Henseleit solution and used as a preparation. […] The preparation was trained in a bath fluid, and after the heart rate became constant, 5×10^-6 M of histamine was administered. After the heart rate became constant, each drug was administered cumulatively.
The inhibition percentage was determined from the following equation: [formula] HRmin : heart rate before the administration of histamine HRmax : heart rate after the administration of histamine
HRx : heart rate at the time of the administration of each drug.
The number of experiments were five for each dose.

[5] = tested on: Mepirizole-induced duodenal ulcer; assay: Anti-ulcer activity: Mepirizole-induced duodenal ulcer; assay type: in vivo, Wistar strain rats
Description: (ii) Mepirizole-induced duodenal ulcer
A test was carried out according to the method of Okabe et al. [S. Okabe et al., Gastrcenterology, 80, 1241 (1981)].
Six Wistar strain rats (male, 200 to 250 g) per group were starved for 24 hours, after which each drug was orally administered, and after 30 minutes, mepirizole was injected subcutaneously at a dose of 200 mg/kg. After 18 hours, the stomach and duodenum were removed and fixed with 3% formalin, after which the areas and depths of the ulcers formed in the duodenum were measured under the binocular stereoscopic microscope (10×). The scores were given in 7 grades depending on the areas and depths of the ulcers, and the sum total of the scores was taken as the ulcer index. The scores were given as follows:
That is to say, the score is 0 at an ulcer area of 0 to 0.2 mm^2, 1 at 0.2 to 1.0 mm^2, 2 at 1 to 3 mm^2, 3 at 3 to 6 mm^2, 4 at 6 to 10 mm^2,5 at 10 mm^2 or more, the ulcer in the condition immediately before perforation is scored as 6, and the ulcer which had caused perforation is scored as 7.
as §1

Indomethacin ulcer = assay: Anti-ulcer activity: Indomethacin ulcer; assay type: in vivo, Wistar strain rats
Description: Six Wistar strain rats (male, 200 to 250 g) per group were starved for 24 hours, after which each drug was orally administered, and after 30 minutes, Indomethacin was injected subcutaneously at a dose of 30 mg/kg. After 5 hours, each rat was killed, and the stomach was removed and fixed with 3% formalin, after which the lengths of ulcers formed in the stomach was measured under the binocular stereoscopic microscope (10×), and the sum total of the lengths was taken as the ulcer index. To a control group was administered 0.5% Tween 80 physiological saline. The inhibition percentage was determined from the following equation: [formula]

SMILES: COc1cccc(C(O)CNC(=C[N+](=O)[O-])NCCSCc2cc(C)c(CN(C)C)s2)c1 (stereo not drawn) [compound 9, N-{2-[[5-(dimethylamino)methyl-4-methyl-2-thienyl]methylthio]ethyl}-N'-[2-hydroxy-2-(3-methoxyphenyl)ethyl]-2-nitro-1,1-ethenediamine]
- Inhibition percentage (Reserpine ulcer; 1 mg/kg): 29%
- Inhibition percentage (Reserpine ulcer; 3 mg/kg): 69%
- ED50 (Reserpine ulcer; Rattus norvegicus, 18 h, reserpine ulcer, read-out: ID50 (the source's name)): 1.8 mg/kg
- Inhibition percentage ([1]; 1 mg/kg, oral): 33%
- Inhibition percentage ([1]; 3 mg/kg, oral): 66%
- Inhibition percentage ([1]; 10 mg/kg, oral): 86%
- Potency ratio ([1]; Cimetidine = 1): 9.1
- ED50 ([1]; Rattus norvegicus, 15 h, oral, water-immersion stress ulcer, read-out: ID50 (the source's name)): 1.7 mg/kg
- inhibition in vivo at 1 mg/kg (gastric acid secretion [2]): 75%
- ED100 (gastric acid secretion [3]; Rattus norvegicus, cumulative, histamine 30 μg/kg/min, read-out: Dose for complete inhibition): 0.2 mg/kg
- Duration (gastric acid secretion [3]; time from complete inhibition until pH of perfusate became 4): 190 min
- Potency ratio ([4]; Cimetidine = 1): 13.7
- IC50 ([4]; right atrium, 5×10^-6 M histamine, 30° C., read-out: ID50 (the source's name)): 245 nM
- Inhibition percentage ([5]; 1 mg/kg, oral): -8%
- Inhibition percentage ([5]; 3 mg/kg, oral): 33%
- Inhibition percentage ([5]; 10 mg/kg, oral): 93%
- Potency ratio ([5]; Cimetidine = 1): 37.7
- ED50 ([5]; Rattus norvegicus, 18 h, oral, mepirizole-induced duodenal ulcer, read-out: ID50 (the source's name)): 4.3 mg/kg
- Potency ratio (Indomethacin ulcer; Cimetidine = 1): 39.3
- ED50 (Indomethacin ulcer; Rattus norvegicus, 5 h, oral, Indomethacin ulcer, read-out: ID50 (the source's name)): 0.7 mg/kg
- inhibition in vivo at 0.3 mg/kg (Indomethacin ulcer; Rattus norvegicus, 0.3 mg/kg, oral, read-out: Inhibition percentage): 6%
- inhibition in vivo at 1 mg/kg (Indomethacin ulcer; Rattus norvegicus, 1 mg/kg, oral, read-out: Inhibition percentage): 70%
- inhibition in vivo at 3 mg/kg (Indomethacin ulcer; Rattus norvegicus, 3 mg/kg, oral, read-out: Inhibition percentage): 85%
- inhibition in vivo at 10 mg/kg (Indomethacin ulcer; Rattus norvegicus, 10 mg/kg, oral, read-out: Inhibition percentage): 97%
